From patent publication US6677311B1, “Inducible HSV-TK in transformed cell populations” (priority 1988, dated 2004)

What was measured:
COS cells = test: Inhibition of plasmid replication in cotransfected COS cells expressing HSV1-TK; format: cell-based, monkey; conditions: 10 μM drug; for reduction of total plasmid copy number (pSV2CAT) relative to no drug treatment: COS cells cotransfected with pSV2CAT, pApS1 (MTV-HSV1-TK), pRShGR, Dex 10^-7 M, 36 h; for decrease of replication of PRShGR': same cotransfection, similar to pSV2CAT
Experimental: The possibility was tested that HSVI-TK expressed from a transfected plasmid could metabolize anti-herpetic nucleosides to substrates capable of being metabolized by a cellular DNA polymerase. In principle, the incorporation of these activated drugs should lead to a net decrease in cellular DNA replication. Accordingly, a plasmid capable of replicating in COS cells [monkey kidney cells which express T antigen (Tag); See Gluzman, Y. in Cell, 23:175-182 (1981)], namely pSV2CAT (See FIG. 1a; a plasmid that contains the Simian virus 40 promoter region linked to the chloramphenicol acetyltransferase (CAT) gene; See Gorman, et al. in Mol. Cell. Biol., 2:1044-1051(1982)) was cotransfected with a plasmid, pApSI (a plasmid that contains the mouse mammary tumor virus long terminal repeat (MTV-LTR) linked to the HSV1-TK gene; See Chandler, et al., in Cell, 33:489-499 (1983)), expressing HSV1-TK gene under the control of the glucocorticoid inducible promoter of the mouse mammary tumor virus (MTV) (see FIG. 1a). Here, the expression of TK is dependent on both the presence of glucocorticoids, such as the synthetic dexamethasone (Dex), and the glucocorticoid receptor which activate the MTV-promoter in the presence of Dex. For this reason, a human glucocorticoid receptor (hGR) expression vector, PRShGR' (a human glucocorticoid receptor (hGR) expression vector that contains the Rous sarcoma virus long terminal repeat (RSV-LTR) linked to the human glucocorticoid receptor; See Giguere, et al., in Cell, 46:645-652 (1986)), was also cotransfected to insure high levels of this transacting factor. PRShGR' itself contains the origin of replication of SV40 and therefore is able to replicate in COS cells.
Semi-confluent COS cells were cotransfected by the calcium phosphate technique (See Graham, F. L. and van der Eb, A. J., Virology, 52:456-467 (1973) with 1 μg of pSV2CAT, 5 μg of pApS1 and 1 μg of pRShGR' and analyzed 36 hours later. The effect of ACV or FIAU on the replication of pSV2CAT was monitored by the reduction in the number of molecules of this plasmid as compared to a similar experiment conducted in the absence of these drugs. The cells were grown in Dulbecco media containing 5% FCS. Before each experiment, Dex, at a concentration of 10^−7 M, was added. Where the nucleoside analogs were tested, either ACV or FIAU was added to the media at a concentration of 10 μM. When the cells were trypsinized and washed after 24 hours, and then replaced, the new media contained the same concentration of Dex and ACV or FIAU as before. 12 hours later the cells were harvested and plasmid DNA was recovered. The plasmids were recovered from the transfected cells by the method of Hirt (see J. Mol. Biol., 26:365-269 (1967)). […]

[1] = test system: rat fibroblast cell line #3B; test: Cell growth assay, HSV1-TK expressing 3B cells; format: cell-based
Excerpt: To examine the effect on cellular DNA replication, the rat fibroblast cell line #3B (see Pfahl, et al. Proc. UCLA Symp. Conf. Steroid Hormone Action, ed. Ringold, G. (Liss, N.Y.), Vol. 75:161-168 (1987) that stably expresses the glucocorticoid inducible MTV-HSV1-TK gene, was used. Addition of Dex to these cells leads to a 50-fold increase in HSV1-TK activity. The effect of the drugs on the 3B cells was compared to the one obtained on the control rat 208 fibroblast cell line (see Quade, K. (1979) in Virology, 98:461-465 (1979), a cell line not expressing HSV1-TK). The experiments were performed by seeding cells at low density (3×10^4) in Dulbecco media containing 10% FCS. Cells were incubated with varying concentrations of drug placed in the media 12 hours after the cells were plated either in the presence or in the absence of 10^−7 M Dexamethasone. After a total period of 72 hours, viable cells were recognized by Trypan blue exclusion. Cell numbers were determined with a Neubauer Hemocytometer. The efficacy of the drugs was monitored as reduction in the total number of viable cells.

spleen and thymus = test: FIAU cell killing in KHTK transgenic mice (miniosmotic pump); format: in vivo, mouse
Experimental: Furthermore, to test if the protein was biologically active, a TK assay [See Fyfe et al., J. Biol. Chem. 253:8721-8727 (1978)] was performed on extracts from these tissues. […] To evaluate the efficacy of the system in vivo, an experiment was performed in which transgenic and non-transgenic littermates were implanted subcutaneously with a miniosmotic pump (model 2002, Alzet, Alza Corp., Palo Alto, Calif.). Transgenic and nontransgenic littermates were then treated for one week with a 50 mg/ml solution of FIAU in PBS released by the Miniosmotic pump. FIAU was chosen because it was most efficient in blocking the DNA replication in vitro. The dose was calculated to obtain serum levels of the drug shown to be effective in cell culture. The animals were sacrificed one week after the pump was implanted. […] In the transgenic mouse, most organs were also normal with the dramatic exception of the spleen and thymus which were visually atrophied.

[2] = transgenic mouse, 50 mg/ml FIAU in PBS by miniosmotic pump, one week

Nc1nc2c(ncn2COCCO)c(=O)[nH]1 [ACV, 9-[(2-hydroxyethoxy)methyl]guanine]
reduction of total plasmid copy number (pSV2CAT) relative to no drug treatment (COS cells): 40% | decrease of replication of PRShGR' (COS cells): 40% | cell death ([1]; 3.0 μM ACV, 3B cells in the presence of Dex, 72 h): 20% | cell death ([1]; 10 μM ACV, 3B cells in the presence of Dex): 60% | toxicity independent of the presence or absence of Dex ([1]; 100 μM ACV): non-specific toxicity | cell death ([1]; 100 μM ACV, 3B cells in the presence of Dex): 98% | effect on number of viable cells ([1]; 0.1 to 1.0 μM, 72 h): no effect

O=c1[nH]c(=O)n([C@H]2O[C@H](CO)[C@@H](O)[C@@H]2F)cc1I [FIAU, 1-(2-deoxy-2-fluoro-a-D-arabinofuranosil)-5-iodouracil]
reduction of total plasmid copy number (pSV2CAT) relative to no drug treatment (COS cells): 70% | decrease of replication of PRShGR' (COS cells): 70% | reduction of viability ([1]; 0.1 μM FIAU): more than 60% | cell death ([1]; 3.0 μM FIAU, in the absence of severe non-specific toxicity): 98% | autopsy findings in control mouse (spleen and thymus; nontransgenic littermate, one week of FIAU treatment): no apparent toxic effects | reduction of the cell number in the spleen (spleen and thymus; [2]): 57% | reduction of the cell number in the thymus (spleen and thymus; [2]): 83%
